System: PC3 cells
Assay: NAMPT Cell Proliferation Assay
Type: cell-based
Conditions: Homo sapiens, PC-3, 120 h, 5 days incubation, cell viability by Cell Titer Glo
Method: NAMPT Cell Proliferation Assay
PC3 cells were seeded in 96-well black plates (Corning #3904) at 500 cells)Owell in 90 µl of RPMI media containing 10% heat-inactivated FBS and incubated overnight at 37° C. and 5% CO2 to allow cells to attach to wells. The following day, test compounds were serially diluted in neat DMSO to 1000× final concentrations prior to dilution with RPMI media to 10× and 1% DMSO. […] of the 10× compounds were then transferred to wells containing cells to produce a dose response of 10-fold dilutions from […] to 1×10^−[…]. Cells were incubated for 5 days at 37° C. and 5% CO2, then cell viability was measured using Cell Titer Glo reagent (Promega #G7571). Percent inhibition values were calculated and fitted to a sigmoidal dose response curves using Assay Explorer software to determine IC50s.

Row | SMILES | IC50
1 | Cc1ncccc1N1CC(C(=O)Nc2ccc(C3CCN(C(=O)C(C)(C)O)CC3)cc2)C1 [Example 71, N-{4-[1-(2-hydroxy-2-methylpropanoyl)piperidin-4-yl]phenyl}-1-(2-methylpyridin-3-yl)azetidine-3-carboxamide] | 0.0729 µM
2 | COc1ncccc1N1CC(C(=O)Nc2ccc(C3CCN(C(=O)C(C)(C)O)CC3)cc2)C1 [Example 73, N-{4-[1-(2-hydroxy-2-methylpropanoyl)piperidin-4-yl]phenyl}-1-(2-methoxypyridin-3-yl)azetidine-3-carboxamide] | 1.98 µM
3 | O=C(Nc1ccc(OC2CCN(CC3CC3)CC2)cc1)C1CN(c2cccnc2)C1 [Example 74, N-(4-{[1-(cyclopropylmethyl)piperidin-4-yl]oxy}phenyl)-1-(pyridin-3-yl)azetidine-3-carboxamide] | 0.0114 µM
4 | CC(C)CN1CCC(Oc2ccc(NC(=O)C3CN(c4cccnc4)C3)cc2)CC1 [Example 76, N-(4-{[1-(2-methylpropyl)piperidin-4-yl]oxy}phenyl)-1-(pyridin-3-yl)azetidine-3-carboxamide] | 0.0191 µM
5 | CCC(CC)CN1CCC(Oc2ccc(NC(=O)C3CN(c4cccnc4)C3)cc2)CC1 [Example 78, N-(4-{[1-(2-ethylbutyl)piperidin-4-yl]oxy}phenyl)-1-(pyridin-3-yl)azetidine-3-carboxamide] | 0.0212 µM
6 | CCC(C)CN1CCC(Oc2ccc(NC(=O)C3CN(c4cccnc4)C3)cc2)CC1 (stereo not drawn) [Example 80, N-(4-{[1-(2-methylbutyl)piperidin-4-yl]oxy}phenyl)-1-(pyridin-3-yl)azetidine-3-carboxamide] | 0.0255 µM
7 | CCC(C)(C)CN1CCC(Oc2ccc(NC(=O)C3CN(c4cccnc4)C3)cc2)CC1 [Example 84, N-(4-{[1-(2,2-dimethylbutyl)piperidin-4-yl]oxy}phenyl)-1-(pyridin-3-yl)azetidine-3-carboxamide] | 0.0389 µM
8 | CC(C)(O)C(=O)N1CCC(c2ccc(NC(=O)C3CN(c4ccnnc4)C3)cc2)CC1 [Example 85, N-{4-[1-(2-hydroxy-2-methylpropanoyl)piperidin-4-yl]phenyl}-1-(pyridazin-4-yl)azetidine-3-carboxamide] | 0.0205 µM
9 | O=C(Nc1ccc(C2CCN(CC3CCCCC3)CC2)cc1)C1CN(c2cccnc2)C1 [Example 86, N-{4-[1-(cyclohexylmethyl)piperidin-4-yl]phenyl}-1-(pyridin-3-yl)azetidine-3-carboxamide] | 0.0697 µM
10 | CC(C)(C)CCN1CCC(c2ccc(NC(=O)C3CN(c4cccnc4)C3)cc2)CC1 [Example 87, N-{4-[1-(3,3-dimethylbutyl)piperidin-4-yl]phenyl}-1-(pyridin-3-yl)azetidine-3-carboxamide] | 0.0317 µM
11 | O=C(Nc1ccc(C2CCN(CC3CCCC3)CC2)cc1)C1CN(c2cccnc2)C1 [Example 88, N-{4-[1-(cyclopentylmethyl)piperidin-4-yl]phenyl}-1-(pyridin-3-yl)azetidine-3-carboxamide] | 0.0663 µM
12 | CCC(C)(C)CN1CCC(c2ccc(NC(=O)C3CN(c4cccnc4)C3)cc2)CC1 [Example 89, N-{4-[1-(2,2-dimethylbutyl)piperidin-4-yl]phenyl}-1-(pyridin-3-yl)azetidine-3-carboxamide] | 0.0646 µM
13 | CCCC(C)CN1CCC(c2ccc(NC(=O)C3CN(c4cccnc4)C3)cc2)CC1 (stereo not drawn) [Example 90, N-{4-[1-(2-methylpentyl)piperidin-4-yl]phenyl}-1-(pyridin-3-yl)azetidine-3-carboxamide] | 0.0601 µM
14 | CCCCN1CCC(c2ccc(NC(=O)C3CN(c4cccnc4)C3)cc2)CC1 [Example 91, N-[4-(1-butylpiperidin-4-yl)phenyl]-1-(pyridin-3-yl)azetidine-3-carboxamide] | 0.0599 µM
15 | CCC(CC)CN1CCC(c2ccc(NC(=O)C3CN(c4cccnc4)C3)cc2)CC1 [Example 92, N-{4-[1-(2-ethylbutyl)piperidin-4-yl]phenyl}-1-(pyridin-3-yl)azetidine-3-carboxamide] | 0.024 µM
16 | CC(C)CCN1CCC(c2ccc(NC(=O)C3CN(c4cccnc4)C3)cc2)CC1 [Example 93, N-{4-[1-(3-methylbutyl)piperidin-4-yl]phenyl}-1-(pyridin-3-yl)azetidine-3-carboxamide] | 0.0584 µM
17 | CC(C)CN1CCC(c2ccc(NC(=O)C3CN(c4cccnc4)C3)cc2)CC1 [Example 94, N-{4-[1-(2-methylpropyl)piperidin-4-yl]phenyl}-1-(pyridin-3-yl)azetidine-3-carboxamide] | 0.0657 µM
18 | CCCN1CCC(c2ccc(NC(=O)C3CN(c4cccnc4)C3)cc2)CC1 [Example 95, N-[4-(1-propylpiperidin-4-yl)phenyl]-1-(pyridin-3-yl)azetidine-3-carboxamide] | 0.0739 µM
19 | COc1ccncc1N1CC(C(=O)Nc2ccc(C3CCN(C(=O)C(C)(C)O)CC3)cc2)C1 [Example 96, N-{4-[1-(2-hydroxy-2-methylpropanoyl)piperidin-4-yl]phenyl}-1-(4-methoxypyridin-3-yl)azetidine-3-carboxamide] | 7.61 µM
20 | CC(C)(O)C(=O)N1CCC(c2ccc(NC(=O)C3CN(c4cnccc4C#N)C3)cc2)CC1 [Example 97, 1-(4-cyanopyridin-3-yl)-N-{4-[1-(2-hydroxy-2-methylpropanoyl)piperidin-4-yl]phenyl}azetidine-3-carboxamide] | 0.922 µM
21 | O=C1CC[C@H](C(=O)N2CCC(c3ccc(NC(=O)C4CN(c5cccnc5)C4)cc3)CC2)N1 [Example 106, N-{4-[1-(5-oxo D-prolyl)piperidin-4-yl]phenyl}-1-(pyridin-3-yl)azetidine-3-carboxamide] | 0.0618 µM

Molecules with a lower IC50, results first:

Row | IC50 | SMILES
22 | 0.00955 µM | O=C(Nc1ccc(OC2CCN(CCC3CC3)CC2)cc1)C1CN(c2cccnc2)C1 [Example 82, N-(4-{[1-(2-cyclopropylethyl)piperidin-4-yl]oxy}phenyl)-1-(pyridin-3-yl)azetidine-3-carboxamide]
23 | 0.00688 µM | CN(C)CCC(=O)N1CCC(c2ccc(NC(=O)C3CN(c4cccnc4)C3)cc2)CC1 [Example 107, N-{4-[1-(N,N-dimethyl-beta-alanyl)piperidin-4-yl]phenyl}-1-(pyridin-3-yl)azetidine-3-carboxamide]
24 | 0.00617 µM | O=C(Nc1ccc(C2CCN(C(=O)CN3CCCC3)CC2)cc1)C1CN(c2cccnc2)C1 [Example 105, 1-(pyridin-3-yl)-N-{4-[1-(pyrrolidin-1-ylacetyl)piperidin-4-yl]phenyl}azetidine-3-carboxamide]
25 | 0.00613 µM | O=C(Nc1ccc(C2CCN(C(=O)CC3C[C@@H]4CC[C@H]3C4)CC2)cc1)C1CN(c2cccnc2)C1 (stereo partly drawn) [Example 100, N-(4-{1-[(1S,4R)-bicyclo[2.2.1]hept-2-ylacetyl]piperidin-4-yl}phenyl)-1-(pyridin-3-yl)azetidine-3-carboxamide]
26 | 0.00605 µM | CCCCC(=O)N1CCC(c2ccc(NC(=O)C3CN(c4cccnc4)C3)cc2)CC1 [Example 98, N-[4-(1-pentanoylpiperidin-4-yl)phenyl]-1-(pyridin-3-yl)azetidine-3-carboxamide]
27 | 0.00572 µM | CCC(C)CC(=O)N1CCC(c2ccc(NC(=O)C3CN(c4cccnc4)C3)cc2)CC1 (stereo not drawn) [Example 99, N-{4-[1-(3-methylpentanoyl)piperidin-4-yl]phenyl}-1-(pyridin-3-yl)azetidine-3-carboxamide]
28 | 0.00569 µM | Cc1ccncc1N1CC(C(=O)Nc2ccc(C3CCN(C(=O)C(C)(C)O)CC3)cc2)C1 [Example 72, N-{4-[1-(2-hydroxy-2-methylpropanoyl)piperidin-4-yl]phenyl}-1-(4-methylpyridin-3-yl)azetidine-3-carboxamide]
29 | 0.00422 µM | O=C(Nc1ccc(OC2CCN(C(=O)CC3CCCC3)CC2)cc1)C1CN(c2cccnc2)C1 [Example 69, N-(4-{[1-(cyclopentylacetyl)piperidin-4-yl]oxy}phenyl)-1-(pyridin-3-yl)azetidine-3-carboxamide]
30 | 0.00397 µM | CC(C)C(C)C(=O)N1CCC(Oc2ccc(NC(=O)C3CN(c4cccnc4)C3)cc2)CC1 (stereo not drawn) [Example 70, N-(4-{[1-(2,3-dimethylbutanoyl)piperidin-4-yl]oxy}phenyl)-1-(pyridin-3-yl)azetidine-3-carboxamide]
31 | 0.00144 µM | O=C(Nc1ccc(C2CCN(C(=O)CN3CCOCC3)CC2)cc1)C1CN(c2cccnc2)C1 [Example 103, N-{4-[1-(morpholin-4-ylacetyl)piperidin-4-yl]phenyl}-1-(pyridin-3-yl)azetidine-3-carboxamide]
32 | 0.00066 µM | O=C(Nc1ccc(C2CCN(C(=O)c3ccsc3)CC2)cc1)C1CN(c2cccnc2)C1 [Example 109, 1-(pyridin-3-yl)-N-{4-[1-(thiophen-3-ylcarbonyl)piperidin-4-yl]phenyl}azetidine-3-carboxamide]
33 | 0.00059 µM | CC1CC1C(=O)N1CCC(c2ccc(NC(=O)C3CN(c4cccnc4)C3)cc2)CC1 (stereo not drawn) [Example 102, N-(4-{1-[(2-methylcyclopropyl)carbonyl]piperidin-4-yl}phenyl)-1-(pyridin-3-yl)azetidine-3-carboxamide]
34 | 0.00031 µM | O=C(Nc1ccc(C2CCN(C(=O)CC3CCCC3)CC2)cc1)C1CN(c2cccnc2)C1 [Example 101, N-{4-[1-(cyclopentylacetyl)piperidin-4-yl]phenyl}-1-(pyridin-3-yl)azetidine-3-carboxamide]
35 | 0.00018 µM | O=C(Nc1ccc(C2CCN(C(=O)c3ccoc3)CC2)cc1)C1CN(c2cccnc2)C1 [Example 104, N-{4-[1-(furan-3-ylcarbonyl)piperidin-4-yl]phenyl}-1-(pyridin-3-yl)azetidine-3-carboxamide]
36 | 0.00013 µM | O=C(Nc1ccc(C2CCN(C(=O)c3nccs3)CC2)cc1)C1CN(c2cccnc2)C1 [Example 108, 1-(pyridin-3-yl)-N-{4-[1-(1,3-thiazol-2-ylcarbonyl)piperidin-4-yl]phenyl}azetidine-3-carboxamide]
